Values of other authors, collected in US20100069389A1, “NOVEL FORMS OF REBOXETINE” (Bionevia Pharmaceuticals, Inc., priority 2008, published 2010).

Conditions: humans; Denolle et al., Clin Pharmacol Ther. 1999

CCOc1ccccc1OC(c1ccccc1)C1CNCCO1 (racemic) [Racemic reboxetine, (2RS)-2-[(RS)-(2-ethoxyphenoxy)-phenylmethyl]morpholine]
Blood pressure and heart rate increases compared with (R,R)-reboxetine: greater blood pressure increases and heart rate increases in humans than does administration of (R,R)-reboxetine
